This note sets out measurements from patent publication US20240391862A1, “(1,4,5-TRISUBSTITUTED-1H-PYRAZOL-3-YL)OXY-2-ALKOXY ALKYL ACIDS AND THEIR DERIVATIVES, THEIR SALTS AND THEIR USE AS HERBICIDAL AGENTS” (Bayer AKtiengesellschaft, priority 2021, published 2024).

For one assay, the system named is ZEAMX. Description: Post-emergence herbicidal effect and crop plant compatibility, greenhouse pot test. To be noted: one-leaf stage, rated visually after about 3 weeks vs untreated controls; for plant injury at 20 g/ha: read-out: Post-emergence effect at 20 g/ha against ZEAMX in %; for plant injury at 80 g/ha: read-out: Post-emergence effect at 80 g/ha against ZEAMX in %. In kind it is in vivo, Zea mays. The gist of the method:
(§1)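 Visual % activity scored roughly 3 weeks post-spray against untreated plants, where 100% means death and 0% equals control. Plants were treated at the one-leaf stage, 2 to 3 weeks after sowing in sandy loam, at 20 to 320 g/ha.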

The subject of a further assay is TRZAS. Described as above. In kind it is in vivo, Triticum aestivum. To be noted: 20 g/ha, one-leaf stage, rated visually after about 3 weeks vs untreated controls; for percent crop injury (phytotoxicity) to wheat, post-emergence at 20 g/ha: Triticum aestivum, 504 h, read-out: Post-emergence effect at 20 g/ha against TRZAS in %. In a few lines:
as §1

Another assay concerns ABUTH. Description: Post-emergence herbicidal effect, greenhouse pot test. In kind it is in vivo, Abutilon theophrasti. To be noted: visual rating about 3 weeks after treatment. The gist of the method: (§2)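 Weeds sown in sandy loam, greenhouse-grown 2–3 weeks, then sprayed at one-leaf stage with WP or EC formulations in water plus 0.5% additive at 600 l/ha. Rates 20 to 320 g/ha. Visual rating after about 3 weeks versus untreated controls (100% = plants dead, 0% = like control).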

For another assay, the system named is ALOMY. The description is as above. To be noted: visual rating about 3 weeks after treatment; for pest or weed control at 320 g/ha: Alopecurus myosuroides, 504 h, read-out: Post-emergence effect against ALOMY. In kind it is in vivo, Alopecurus myosuroides. In a few lines: as §2
The subject of the next assay is AMARE. The assay is described as above. In kind it is in vivo, Amaranthus retroflexus. To be noted: visual rating about 3 weeks after treatment. In a few lines: as §2
For the next assay, the system named is AVEFA. The assay is described as above. In kind it is in vivo, Avena fatua. Particulars: visual rating about 3 weeks after treatment. The gist of the method:
as §2

For a further assay, the system named is DIGSA. Described as above. Particulars: visual rating about 3 weeks after treatment. In kind it is in vivo, Digitaria sanguinalis. In a few lines: as §2
The subject of another assay is ECHCG. The description is as above. In kind it is in vivo, Echinochloa crus-galli. Particulars: for pest or weed control at 320 g/ha / pest or weed control at 80 g/ha: Echinochloa crus-galli, 504 h, read-out: Post-emergence effect against ECHCG in %. In a few lines:
as §2

For the next assay, the system named is LOLRI. The assay is described as above. In kind it is in vivo, Lolium rigidum. Particulars: for pest or weed control at 320 g/ha: Lolium rigidum, 504 h, read-out: Post-emergence effect against LOLRI in %. In a few lines:
as §2

A further assay relates to PHBPU. The assay is described as above. In kind it is in vivo, Ipomoea purpurea. The gist of the method: as §2
The subject of the next assay is POLCO. Described as above. In kind it is in vivo, Fallopia convolvulus. In a few lines:
as §2

The next assay relates to SETVI. The assay is described as above. To be noted: 320 g/ha; for pest or weed control at 320 g/ha: Setaria viridis, 504 h, read-out: Post-emergence effect against SETVI in %. In kind it is in vivo, Setaria viridis. In a few lines:
as §2

The next assay has as its system VERPE. The assay is described as above. In kind it is in vivo, Veronica persica. Particulars: 320 g/ha; for pest or weed control at 320 g/ha: Veronica persica, 504 h, read-out: Post-emergence effect against VERPE in %. In a few lines: as §2
A further assay concerns VIOTR. The description is as above. In kind it is in vivo, Viola tricolor. To be noted: for pest or weed control at 320 g/ha / pest or weed control at 80 g/ha: Viola tricolor, 504 h, read-out: Post-emergence effect against VIOTR in %. The gist of the method: as §2
Another assay relates to KCHSC. The assay is described as above. In kind it is in vivo. Particulars: for pest or weed control at 320 g/ha / pest or weed control at 80 g/ha: 504 h, read-out: Post-emergence effect against KCHSC in %. The gist of the method: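 Visual rating of activity against untreated plants (100% = plants died, 0% = no effect), done about 3 weeks after treatment. Compounds applied at 20–320 g/ha as aqueous spray (600 l/ha, 0.5% additive) from WP or EC formulations onto one-leaf-stage plants grown in sandy loam under greenhouse conditions.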

The mark [1] stands for this setting: Abutilon theophrasti, 504 h, 320 g/ha, read-out: Post-emergence effect against ABUTH.
[2] abbreviates: Amaranthus retroflexus, 504 h, 320 g/ha, read-out: Post-emergence effect against AMARE.
[3] abbreviates: Digitaria sanguinalis, 504 h, 320 g/ha, read-out: Post-emergence effect against DIGSA.
Setting [4] is: Ipomoea purpurea, 504 h, 320 g/ha, read-out: Post-emergence effect against PHBPU in %.
[5] abbreviates: Fallopia convolvulus, 504 h, 320 g/ha, read-out: Post-emergence effect against POLCO in %.

In the case of `COC(=O)CCOC(=O)C(OC)Oc1nn(-c2ncccc2F)c(-c2ccc(F)nc2)c1C1CC1` (single isomer, unassigned) [Example I-88], the “Post-emergence effect at 20 g/ha against ZEAMX in %” value with ZEAMX (20 g/ha) was 0%. In the assay on ZEAMX (80 g/ha), the “Post-emergence effect at 80 g/ha against ZEAMX in %” value was 0%. The “Post-emergence effect at 320 g/ha against ZEAMX in %” value in the assay with ZEAMX (320 g/ha) amounted to 0%. Further, the “Post-emergence effect at 20 g/ha against TRZAS in %” value with TRZAS stood at 20%. Further, the “Post-emergence effect against ABUTH” value in the assay on ABUTH (320 g/ha) turned out to be 80%. Besides, the “Post-emergence effect against ALOMY” value in the assay on ALOMY (80 g/ha) and in the assay with ALOMY (320 g/ha) was 90% each time. In the assay on AMARE (320 g/ha), the “Post-emergence effect against AMARE” value was 80%. The “Post-emergence effect against AVEFA” value with AVEFA (80 g/ha) and in the assay on AVEFA (320 g/ha) was 90% in each case. The “Post-emergence effect against DIGSA” value with DIGSA (320 g/ha) is 80%. For the same compound, the “Post-emergence effect against ECHCG” value with ECHCG (20 g/ha, visual rating about 3 weeks after treatment) is 80%. Besides, the “Post-emergence effect against ECHCG in %” value in the assay with ECHCG (80 g/ha) and in the assay with ECHCG (320 g/ha) was 90% in each case. The “Post-emergence effect against LOLRI in %” value in the assay on LOLRI (80 g/ha) and in the assay with LOLRI (320 g/ha) was 90% in each case. Moreover, the “Post-emergence effect against PHBPU in %” value with PHBPU (320 g/ha) is 90%. Also, the “Post-emergence effect against POLCO in %” value in the assay on POLCO (20 g/ha) was determined as 80%; in the assay on POLCO (80 g/ha) it was 90%; in the assay with POLCO (320 g/ha), 90%. For the same compound, the “Post-emergence effect against SETVI in %” value with SETVI is 90%. Also, the “Post-emergence effect against VERPE in %” value in the assay with VERPE came out at 90%. For the same compound, the results for the “Post-emergence effect against VIOTR in %” value with VIOTR (80 g/ha) and in the assay on VIOTR (320 g/ha) were 80% and 90%, respectively. Also, the “Post-emergence effect against KCHSC in %” value with KCHSC (80 g/ha) and in the assay on KCHSC (320 g/ha) was 80% throughout.

Turning to `COC(Oc1nn(-c2cnccn2)c(-c2ccc(F)nc2)c1Cl)C(=O)O` (stereo not shown) [Example I-42, {[4-Chloro-5-(6-fluoropyridin-3-yl)-1-(pyrazin-2-yl)-1H-pyrazol-3-yl]oxy}(methoxy)acetic acid], the plant injury at 20 g/ha in the assay with ZEAMX (Zea mays, 504 h, 20 g/ha) came to 0%. Moreover, the plant injury at 80 g/ha in the assay with ZEAMX (Zea mays, 504 h, 80 g/ha) was found to be 0%. The plant injury at 320 g/ha with ZEAMX (Zea mays, 504 h, 320 g/ha, read-out: Post-emergence effect at 320 g/ha against ZEAMX in %) stood at 20%. The percent crop injury (phytotoxicity) to wheat, post-emergence at 20 g/ha in the assay with TRZAS was 0%. Besides, the pest or weed control at 320 g/ha was determined as 80% in the assay on ABUTH (setting [1]); 90% with ALOMY (320 g/ha); 80% with AMARE (setting [2]); 90% with DIGSA (setting [3]); 90% in the assay on ECHCG (320 g/ha); 90% with LOLRI (320 g/ha). The pest or weed control at 320 g/ha with PHBPU (setting [4]) came out at 80%; in the assay on POLCO (setting [5]), 80%; in the assay with SETVI, 80%; in the assay with VERPE, 80%; with VIOTR (320 g/ha), 90%; with KCHSC (320 g/ha), 90%.

Turning to `CCOC(=O)C(OC)Oc1nn(-c2cnccn2)c(-c2ccc(F)nc2)c1Cl` (stereo not shown) [Example I-46], the plant injury at 20 g/ha with ZEAMX (Zea mays, 504 h, 20 g/ha) was found to be 0%. Besides, the plant injury at 80 g/ha in the assay on ZEAMX (Zea mays, 504 h, 80 g/ha) is 20%. In the assay on TRZAS, the percent crop injury (phytotoxicity) to wheat, post-emergence at 20 g/ha amounted to 0%. In addition, the pest or weed control at 320 g/ha with ABUTH (setting [1]) amounted to 80%; in the assay on ALOMY (320 g/ha) it was 90%; with AMARE (setting [2]), 80%; in the assay on DIGSA (setting [3]), 80%; in the assay on ECHCG (320 g/ha) it was 90%; with LOLRI (320 g/ha), 90%. Also, the pest or weed control at 320 g/ha in the assay on PHBPU (setting [4]) came to 90%; with POLCO (setting [5]) it was 80%; with SETVI, 90%; with VERPE, 90%; in the assay with VIOTR (320 g/ha), 90%; in the assay on KCHSC (320 g/ha), 90%. Besides, the pest or weed control at 80 g/ha in the assay with AMARE (Amaranthus retroflexus, 504 h, 80 g/ha, read-out: Post-emergence effect against AMARE) amounted to 80%; in the assay with ECHCG (80 g/ha), 80%; in the assay with VIOTR (80 g/ha), 90%; with KCHSC (80 g/ha), 80%.

As for `CCOC(=O)C(OC)Oc1nn(-c2ncccc2F)c(-c2ccc(F)nc2)c1C(F)(F)F` (stereo not shown) [Example I-55], in the assay on ZEAMX (Zea mays, 504 h, 20 g/ha), the plant injury at 20 g/ha turned out to be 0%. For the same compound, in the assay with ZEAMX (Zea mays, 504 h, 80 g/ha), the plant injury at 80 g/ha amounted to 0%. Further, in the assay on TRZAS, the percent crop injury (phytotoxicity) to wheat, post-emergence at 20 g/ha came to 20%. The pest or weed control at 80 g/ha was 80% in the assay with ABUTH (Abutilon theophrasti, 504 h, 80 g/ha, read-out: Post-emergence effect against ABUTH); 90% in the assay with AVEFA (Avena fatua, 504 h, 80 g/ha, read-out: Post-emergence effect against AVEFA); 90% in the assay on DIGSA (Digitaria sanguinalis, 504 h, 80 g/ha, read-out: Post-emergence effect against DIGSA); 90% in the assay on ECHCG (80 g/ha); 80% in the assay with PHBPU (Ipomoea purpurea, 504 h, 80 g/ha, read-out: Post-emergence effect against PHBPU in %); 80% in the assay with POLCO (Fallopia convolvulus, 504 h, 80 g/ha, read-out: Post-emergence effect against POLCO in %). In addition, the pest or weed control at 80 g/ha in the assay with VIOTR (80 g/ha) worked out at 80%; in the assay with KCHSC (80 g/ha) it was 90%. Also, the pest or weed control at 320 g/ha stood at 90% in the assay on ABUTH (setting [1]); 90% in the assay on ALOMY (320 g/ha); 90% with AVEFA (Avena fatua, 504 h, 320 g/ha, read-out: Post-emergence effect against AVEFA); 90% with DIGSA (setting [3]); 90% in the assay with ECHCG (320 g/ha); 90% in the assay with LOLRI (320 g/ha). Further, the pest or weed control at 320 g/ha with PHBPU (setting [4]) came out at 90%; in the assay with POLCO (setting [5]), 90%; in the assay on SETVI, 80%; in the assay on VERPE, 90%; in the assay with VIOTR (320 g/ha) it was 90%; in the assay on KCHSC (320 g/ha), 90%. Also, in the assay on PHBPU (Ipomoea purpurea, 504 h, 20 g/ha, read-out: Post-emergence effect against PHBPU in %), the pest or weed control at 20 g/ha stood at 80%.
